The values that follow come from patent US20220370416A1, “COMPOUNDS AND METHODS FOR TARGETED DEGRADATION OF KRAS” (Arvinas Operations, Inc., priority 2020, published 2022).

For experiment [1], the target named is T1, HiBit-KRAS^G12C (Homo sapiens, UniProt P01116, G12C). As to the kind of experiment: HiBit degradation assay in MiaPaCa-2 HiBit-KRas^G12C cells. Type of experiment: cell-based. The conditions noted are these: 24 hours; for DC50: read-out: KRas^G12C-HiBiT (MiaPaCa; 0.5% DMSO) IC50. In short, it runs like this: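 DC50 and Dmax come from 4-parameter fits of DMSO-normalized HiBit luminescence after 24 hours' exposure at 37° C to 10 μM–20 nM compound in 0.1% or 0.5% DMSO. Cells: MiaPaCa-2 carrying one endogenously HiBit-tagged KRAS^G12C allele; concentrations causing ≥50% […] viability loss (alamar blue) excluded.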
T1 sequence (P01116 1-186 isoform P01116-2 G12C limits assumed): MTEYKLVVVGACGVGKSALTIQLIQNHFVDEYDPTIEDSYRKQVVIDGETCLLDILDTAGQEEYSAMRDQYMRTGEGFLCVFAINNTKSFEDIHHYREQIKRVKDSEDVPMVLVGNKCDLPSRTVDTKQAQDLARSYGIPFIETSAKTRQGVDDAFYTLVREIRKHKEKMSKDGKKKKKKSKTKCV
(HiBiT is a short tag that completes a luciferase, so light tracks the accessible tagged protein.)

Experiment [2] has as its target T1, HiBit-KRAS^G12C. Nature of the experiment: HiBit degradation assay in SW1573 HiBit-KRas^G12C cells. Format: cell-based. Set-up: expressed in transfected cells; host or cells: SW1573 (clone E6), modified pcDNA3.1 vector, TK promoter. The conditions noted are these: 24 hours. Summed up: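 HiBit-KRAS G12C degradation was measured after a 24 h compound exposure (titrated 10 μM–20 nM) in engineered SW1573 cells. Lytic HiBit luminescence, expressed relative to DMSO controls, yielded DC50 and Dmax from 4-parameter fits. Concentrations causing ≥50% loss in alamar blue viability were omitted as cytotoxic.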

Where [3] appears, read: MIA PaCa-2, MiaPaCa-2 HiBit-KRas^G12C cells, 0.5% DMSO, maximum degradation, read-out: KRas^G12C-HiBiT (MiaPaCa; 0.5% DMSO) DMax.
The mark [4] stands for this setting: MiaPaCa-2 HiBit-KRas^G12C cells, 0.5% DMSO.
Setting [5] is: SW1573, SW1573 HiBit-KRas^G12C, 0.5% DMSO, read-out: KRas^G12C-HiBiT (SW1573; 0.5% DMSO) Dmax**.
The mark [6] stands for this setting: read-out: KRas^G12C-HiBiT (SW1573; 0.5% DMSO) IC50***, SW1573 HiBit-KRas^G12C, 0.5% DMSO.

Regarding `C=CC(=O)N1CCN(c2nc(OCCN3CCC(C)(COc4cc([C@H](C(=O)N5C[C@H](O)C[C@H]5C(=O)N[C@@H](C)c5ccc(-c6scnc6C)cc5)C(C)C)on4)CC3)nc3c(F)c(-c4cc(O)cc5ccccc45)c(Cl)cc23)C[C@@H]1CC#N` [Compound 131, (2S,4R)-1-[(2R)-2-[3-({1-[2-({6-chloro-4-[(3S)-3-(cyanomethyl)-4-(prop-2-enoyl)piperazin-1-yl]-8-fluoro-7-(3-hydroxynaphthalen-1-yl)quinazolin-2-yl}oxy)ethyl]-4-methylpiperidin-4-yl}methoxy)-1,2-oxazol-5-yl]-3-methylbutanoyl]-4-hydroxy-N-[(1S)-1-[4-(4-methyl-1,3-thiazol-5-yl)phenyl]ethyl]pyrrolidine-2-carboxamide], the Dmax at HiBit-KRAS^G12C [1] (setting [3]) and on HiBit-KRAS^G12C [2] (setting [5]) was more than 70% throughout. The DC50 at HiBit-KRAS^G12C [1] (setting [4]) was 100 to 1000 nM; at HiBit-KRAS^G12C [2] (setting [6]), less than 100 nM.
Regarding `C=CC(=O)N1CCN(c2nc(OCCN3CCC(COc4cc([C@H](C(=O)N5C[C@@H](O)C[C@H]5C(=O)N[C@@H](C)c5ccc(-c6scnc6C)cc5)C(C)C)on4)CC3)nc3c(F)c(-c4cc(O)cc5ccccc45)c(Cl)cc23)C[C@@H]1CC#N` (atropisomer, axis not shown) [Compound 106, (2S,4S)-1-[(2R)-2-[3-({1-[2-({6-chloro-4-[(3S)-3-(cyanomethyl)-4-(prop-2-enoyl)piperazin-1-yl]-8-fluoro-7-(3-hydroxynaphthalen-1-yl)quinazolin-2-yl}oxy)ethyl]piperidin-4-yl}methoxy)-1,2-oxazol-5-yl]-3-methylbutanoyl]-4-hydroxy-N-[(1S)-1-[4-(4-methyl-1,3-thiazol-5-yl)phenyl]ethyl]pyrrolidine-2-carboxamide], the Dmax at HiBit-KRAS^G12C [1] (setting [3]) is less than 35%. In addition, the DC50 was less than 100 nM on HiBit-KRAS^G12C [1] (setting [4]) and more than 1000 nM at HiBit-KRAS^G12C [2] (setting [6]).
As to `C=CC(=O)N1CCN(c2nc(OCCN3CCC(F)(CN(C)CC(=O)N[C@H](C(=O)N4C[C@H](O)C[C@H]4C(=O)N[C@@H](C)c4ccc(-c5scnc5C)cc4)C(C)(C)C)CC3)nc3c(F)c(-c4cc(O)cc5ccccc45)c(Cl)cc23)C[C@@H]1CC#N` [Compound 120, (2S,4R)-1-[(2S)-2-{2-[({1-[2-({6-chloro-4-[(3S)-3-(cyanomethyl)-4-(prop-2-enoyl)piperazin-1-yl]-8-fluoro-7-(3-hydroxynaphthalen-1-yl)quinazolin-2-yl}oxy)ethyl]-4-fluoropiperidin-4-yl}methyl)(methyl)amino]acetamido}-3,3-dimethylbutanoyl]-4-hydroxy-N-[(1S)-1-[4-(4-methyl-1,3-thiazol-5-yl)phenyl]ethyl]pyrrolidine-2-carboxamide], the Dmax lay within 35 to 70% on HiBit-KRAS^G12C [1] (MIA PaCa-2, read-out: KRas^G12C-HiBiT (MiaPaCa; 0.5% DMSO) DMax, MiaPaCa-2 HiBit-KRas^G12C cells, 0.5% DMSO, maximum degradation) and 35 to 70% on HiBit-KRAS^G12C [2] (SW1573, read-out: KRas^G12C-HiBiT (SW1573; 0.5% DMSO) Dmax**, SW1573 HiBit-KRas^G12C, 0.5% DMSO). In addition, the DC50 on HiBit-KRAS^G12C [1] (setting [4]) and on HiBit-KRAS^G12C [2] (setting [6]) was 100 to 1000 nM in each case.
As to `Cc1ncsc1-c1ccc([C@H](C)NC(=O)[C@@H]2C[C@@H](O)CN2C(=O)[C@@H](NC(=O)COCC2CCN(CCOc3nc(N4CCN(C(=O)/C=C/CN5CCOCC5)[C@@H](CC#N)C4)c4cc(Cl)c(-c5cc(O)cc6ccccc56)c(F)c4n3)CC2)C(C)(C)C)cc1` [Compound 164, (2S,4R)-1-[(2S)-2-[2-({1-[2-({6-chloro-4-[(3S)-3-(cyanomethyl)-4-[(2E)-4-(morpholin-4-yl)but-2-enoyl]piperazin-1-yl]-8-fluoro-7-(3-hydroxynaphthalen-1-yl)quinazolin-2-yl}oxy)ethyl]piperidin-4-yl}methoxy)acetamido]-3,3-dimethylbutanoyl]-4-hydroxy-N-[(1S)-1-[4-(4-methyl-1,3-thiazol-5-yl)phenyl]ethyl]pyrrolidine-2-carboxamide], the Dmax at HiBit-KRAS^G12C [1] (setting [3]) and at HiBit-KRAS^G12C [2] (setting [5]) was 35 to 70% in each case. Moreover, the DC50 at HiBit-KRAS^G12C [1] (setting [4]) is more than 1000 nM; on HiBit-KRAS^G12C [2] (setting [6]) it was 100 to 1000 nM.
Regarding `C=C(F)C(=O)N1CCN(c2nc(OCCN3CCC(C)(COc4cc([C@@H](C(=O)N5C[C@H](O)C[C@H]5C(=O)N[C@@H](C)c5ccc(-c6ccnn6C)cc5)C(C)C)on4)CC3)nc3c(F)c(-c4cc(O)cc5ccccc45)c(Cl)cc23)C[C@@H]1CC#N` (atropisomer, axis not shown) [Compound 125, (2S,4R)-1-[(2S)-2-[3-({1-[2-({6-chloro-4-[(3S)-3-(cyanomethyl)-4-(2-fluoroprop-2-enoyl)piperazin-1-yl]-8-fluoro-7-(3-hydroxynaphthalen-1-yl)quinazolin-2-yl}oxy)ethyl]-4-methylpiperidin-4-yl}methoxy)-1,2-oxazol-5-yl]-3-methylbutanoyl]-4-hydroxy-N-[(1S)-1-[4-(1-methyl-1H-pyrazol-5-yl)phenyl]ethyl]pyrrolidine-2-carboxamide], the figures for the DC50 on HiBit-KRAS^G12C [1] (setting [4]) and on HiBit-KRAS^G12C [2] (setting [6]) were more than 1000 nM and 100 to 1000 nM, respectively.
As to `C=CC(=O)N1CCN(c2nc(OCCN3CCC(COc4cc([C@H](C(=O)N5C[C@H](O)C[C@H]5C(=O)N[C@@H](C)c5ccc(-c6scnc6C)cc5)C(C)C)on4)CC3)nc3c(F)c(-c4cc(O)cc5ccccc45)c(Cl)cc23)CC1` (atropisomer, axis not shown) [Compound 147, (2S,4R)-1-[(2R)-2-(3-{[1-(2-{[6-chloro-8-fluoro-7-(3-hydroxynaphthalen-1-yl)-4-[4-(prop-2-enoyl)piperazin-1-yl]quinazolin-2-yl]oxy}ethyl)piperidin-4-yl]methoxy}-1,2-oxazol-5-yl)-3-methylbutanoyl]-4-hydroxy-N-[(1S)-1-[4-(4-methyl-1,3-thiazol-5-yl)phenyl]ethyl]pyrrolidine-2-carboxamide], on HiBit-KRAS^G12C [1] (MiaPaCa-2 HiBit-KRas^G12C cells, 0.5% DMSO, maximum degradation), the “KRas^G12C-HiBiT (MiaPaCa; 0.5% DMSO) DMax” value is listed as “B (35 < B < 70)”. Moreover, the DC50 at HiBit-KRAS^G12C [1] (setting [4]) and on HiBit-KRAS^G12C [2] (setting [6]) was 100 to 1000 nM throughout. The Dmax on HiBit-KRAS^G12C [2] (setting [5]) was more than 70%.
`C=CC(=O)N1CCN(c2nc(OCCN3CCC(F)(COc4cc([C@H](C(=O)N5C[C@H](O)C[C@H]5C(=O)N[C@@H](C)c5ccc(-c6scnc6C)cc5)C(C)C)on4)CC3)nc3c(F)c(-c4cc(O)cc5ccccc45)c(Cl)cc23)C[C@@H]1CC#N` [Compound 133, (2S,4R)-1-[(2R)-2-[3-({1-[2-({6-chloro-4-[(3S)-3-(cyanomethyl)-4-(prop-2-enoyl)piperazin-1-yl]-8-fluoro-7-(3-hydroxynaphthalen-1-yl)quinazolin-2-yl}oxy)ethyl]-4-fluoropiperidin-4-yl}methoxy)-1,2-oxazol-5-yl]-3-methylbutanoyl]-4-hydroxy-N-[(1S)-1-[4-(4-methyl-1,3-thiazol-5-yl)phenyl]ethyl]pyrrolidine-2-carboxamide]: the Dmax at HiBit-KRAS^G12C [1] (setting [3]) and at HiBit-KRAS^G12C [2] (setting [5]) was more than 70% each time. Further, the DC50 at HiBit-KRAS^G12C [1] (setting [4]) is 100 to 1000 nM; at HiBit-KRAS^G12C [2] (setting [6]), less than 100 nM.
On to `C=C(F)C(=O)N1CCN(c2nc(OCCN3CCC(COCC(=O)N[C@H](C(=O)N4C[C@H](O)C[C@H]4C(=O)N[C@@H](C)c4ccc(-c5scnc5C)cc4)C(C)(C)C)CC3)nc3c(F)c(-c4cc(O)cc5ccccc45)c(Cl)cc23)C[C@@H]1CC#N` [Compound 15, (2S,4R)-1-[(2S)-2-[2-({1-[2-({6-chloro-4-[(3S)-3-(cyanomethyl)-4-(2-fluoroprop-2-enoyl)piperazin-1-yl]-8-fluoro-7-(3-hydroxynaphthalen-1-yl)quinazolin-2-yl}oxy)ethyl]piperidin-4-yl}methoxy)acetamido]-3,3-dimethylbutanoyl]-4-hydroxy-N-[(1S)-1-[4-(4-methyl-1,3-thiazol-5-yl)phenyl]ethyl]pyrrolidine-2-carboxamide], for which the Dmax was 35 to 70% at HiBit-KRAS^G12C [1] (MIA PaCa-2, read-out: KRas^G12C-HiBiT (MiaPaCa; 0.1% DMSO) DMax, MiaPaCa-2 HiBit-KRas^G12C cells, 0.1% DMSO, maximum degradation) and more than 70% on HiBit-KRAS^G12C [2] (SW1573, read-out: KRas^G12C-HiBit (SW1573; 0.1% DMSO) Dmax**, SW1573 HiBit-KRas^G12C, 0.1% DMSO). Also, the DC50 on HiBit-KRAS^G12C [2] (SW1573 HiBit-KRas^G12C, 0.1% DMSO, read-out: KRas^G12C-HIBit (SW1573; 0.1% DMSO) DC50*) is 100 to 1000 nM.
